Where two headings read alike, the source gives them in different places.
Legend:
[1] = test system: proteome of heterozygous BromoTag-Brd2 HEK293 cells; assay: Multiplexed TMT labeling mass spectrometry proteomics; type: cell-based, human; settings: 1 μM, 2 h
Protocol: To do this, we subjected our heterozygous BromoTag-Brd2 HEK293 cell line to a 1 μM treatment of 46, its non-degrading control 52, or vehicle (DMSO) for 2 h prior to harvest. The harvested lysate was then subjected to multiplexed tandem mass tag (TMT) labeling mass spectrometry to enable quantitative and unbiased analysis of protein levels in each condition.
CRISPR-modified BromoTag-Brd2 HEK293 cells (5 × 10^6) were seeded on a […] 24 h before treatment. The cells were treated with either DMSO, 1 μM AGB1, or 1 μM cis-AGB1. After 2 h of treatment, the cells were washed twice with PBS. The cells were lysed in 150 μL of 100 mM TEAB and 5% (w/v) sodium dodecyl sulfate. The lysate was sonicated for 10 s and then centrifuged at 15,000g for 5 min with the supernatant collected post-centrifugation. The samples were then quantified using a micro-BCA protein assay kit (Thermo Fisher Scientific); 300 μg of each sample was then reduced, alkylated, and then digested using the Strap mini protocol (protifi) as described by the manufacturer (protifi) with some modification. The samples were double-digested with trypsin (1:40) first overnight and then for another 6 h with the same ratio (1:40) in 50 mM TEAB buffer. The peptides were quantified using a quantitative fluorometric peptide assay (Thermo Fisher Scientific). […]

[2] = test system: HEK293 cells; assay: CellTiter-Glo 2.0 cell viability assay, HEK293; type: cell-based, human; settings: Homo sapiens; HEK293, 48 Hours, mean ±S.E.M, N = 3; read-out: pEC50 (cell viability) (converted)
[3] = test system: MV-4-11 cells; assay: CellTiter-Glo 2.0 cell viability assay, MV-4-11; type: cell-based, human; settings: Homo sapiens, MV4-11
[4] = test system: 22RV1 cells; assay: CellTiter-Glo 2.0 cell viability assay, 22RV1; type: cell-based, human; settings: Homo sapiens; 22RV1, 48 Hours, mean ±S.E.M, N = 2; read-out: pEC50 (cell viability) (converted)
[5] = design: method as in earlier work; settings: mice, cited from earlier work
[6] = target: T1, VHL with Brd4^BD2 L387A (Homo sapiens, UniProt O60885+P40337, L387A); assay: FP competitive binding assay, ternary complex binding (compound preincubated with Brd4^BD2 L387A); settings: for α (FP binding): cooperativity, Kd binary/Kd ternary, supplementary CSV; for Kd: preincubated with Brd4^BD2 L387A, mean ±S.E.M., N = 4, read-out: ternary binding affinity Kd; for cooperativity (α): α = Kd binary/Kd ternary
T1 construct: N-terminally His6-tagged VHL (54–213); His6 (N, cleaved yes); made in house; host or cells: E. coli

[7] = test system: BromoTag-Brd2; assay: Dose–response degradation assay (western blot, 6 h) in heterozygous BromoTag-Brd2 HEK293 cells; type: cell-based, human; settings: 6 h; for pDC50 (Ab: Brd^4BD2 L387A) / pDC50 (Ab: BromoTag-Brd2): eight-point 10 μM to 1 nM, mean ±S.E. of two repeats; for DC50: read-out: DC50 of BromoTag-Brd2 degradation (DC50, 6h), single stereoisomers
[8] = target: T2, VHL (VCB protein) (Homo sapiens, UniProt P40337); assay: FP competitive binding assay, binary binding; settings: compound alone; mean ±S.E.M., N = 4; read-out: binary affinity to VHL Kd
T2 construct: N-terminally His6-tagged VHL (54–213); His6 (N, cleaved yes); made in house; host or cells: E. coli

[9] = test system: BromoTag-Brd2; assay: Time course degradation assay (western blot, 0–36 h) in heterozygous BromoTag-Brd2 HEK293 cells; type: cell-based, human; settings: 500 nM 47, 1 μM 48, over 36 h
Protocol: Heterozygous BromoTag-Brd2 HEK293 cells were plated at a density of 5 × 10^5 cells per well of a six-well healthy plate a day prior to initiating the time course assay. […] The time point range was between 0 and 36 h. Treatment was applied in a staggered fashion to enable all time points to be harvested at the same time.
(§1) All cells were harvested on ice with RIPA lysis and extraction buffer (Thermo Fisher Scientific, 89901) supplemented with protease inhibitor cocktail (Merck, 11697498001) and Benzonase Nuclease (Sigma, E1014) before being stored at −20 °C prior to use. Total protein quantity was determined using the BCA protein assay (#23225, Pierce, Rockford, Illinois). The protein concentration was determined using the BCA assay (Thermo Fisher Scientific, 23225). The samples were then prepared and loaded onto NuPAGE 4–12% bis–tris Midi gels (Thermo Fisher Scientific, WG1403A), followed by the transfer of proteins onto nitrocellulose membranes (EMD Millipore). The membranes were blocked for 1 h prior to incubation with the primary antibodies using 5% Milk TBST. […] All western blots were analyzed for band intensities using Image Lab from Bio-Rad (LI-COR, Biosciences). The data extracted from these blots were then plotted and analyzed using Prism (v. 8.2.0, GraphPad).

[10] = test system: Brd4^BD2 wild-type domain; design: method as in PMID 32756710; settings: cited from earlier work
[11] = test system: BET proteins: Brd2, Brd3, and Brd4; assay: Single-concentration western blot screen, BET proteins; type: cell-based, human; settings: 1 μM, 6 h
Protocol: With this initial library in hand, we set out to evaluate the activity and selectivity of our I-BET-based B&H–PROTACs by treating our heterozygous BromoTag-Brd2 HEK293 cells with 1 μM of compounds 15–17 or 1 μM of control compounds MZP-15 (14), MZ1 (1), and cis-MZ1 for 6 h, which is the sufficient time to achieve effective MZ1-induced BET protein degradation (Figure 4A). The cells were harvested, and the subsequent lysate was analyzed via western blot using antibodies against BET proteins: Brd2, Brd3, and Brd4 (Figure 4A).
as §1, with “Millipore).” for “Millipore). The membranes were blocked for 1 h prior to incubation with the primary antibodies using 5% Milk TBST.”

## CC[C@@H](C(=O)OCCOCCOCCOCC(=O)N[C@H](C(=O)N1C[C@@H](O)C[C@H]1C(=O)NCc1ccc(-c2scnc2C)cc1)C(C)(C)C)[C@@H]1N=C(c2ccc(Cl)cc2)c2c(sc(C)c2C)-n2c(C)nnc21 [cis-AGB1 (52), (S)-13-((2S,4S)-4-Hydroxy-2-((4-(4-methylthiazol-5-yl)benzyl)carbamoyl)pyrrolidine-1-carbonyl)-14,14-dimethyl-11-oxo-3,6,9-trioxa-12-azapentadecyl (R)-2-((S)-4-(4-chlorophenyl)-2,3,9-trimethyl-6H-thieno[3,2-f][1,2,4]triazolo[4,3-a][1,4]diazepin-6-yl)butanoate]
[1]
  proteins significantly degraded among the 6621 proteins quantified: No significant degradation
[2]
  EC50: > 10000 nM

## Cc1ncsc1-c1ccc(CNC(=O)[C@@H]2C[C@@H](O)CN2C(=O)[C@@H](NC(=O)COCCOCCOCCNC(=O)C[C@@H]2N=C(c3ccc(Cl)cc3)c3c(sc(C)c3C)-n3c(C)nnc32)C(C)(C)C)cc1 [MZ1 (1)]
[3]; MV-4-11, 24 Hours, mean ±S.E.M, N = 2, read-out: pEC50 (cell viability) (converted)
  EC50: 25.1 nM
[3]; MV-4-11 cells, read-out: EC50 (cell viability)
  EC50: ~20 nM
[4]
  EC50: 5010 nM
[5]; IV (5 mg/kg), 5 mg/kg
  T1/2: 1.04 h
[5]; SC (5 mg/kg)
  T1/2: 2.95 h

## CC[C@@H](C(=O)NCCOCCOCCOCC(=O)N[C@H](C(=O)N1C[C@H](O)C[C@H]1C(=O)NCc1ccc(-c2scnc2C)cc1)C(C)(C)C)[C@@H]1N=C(c2ccc(Cl)cc2)c2c(sc(C)c2C)-n2c(C)nnc21 [AGB3 (48), (2S,4R)-1-((2S,17R)-2-(tert-Butyl)-17-((S)-4-(4-chlorophenyl)-2,3,9-trimethyl-6H-thieno[3,2-f][1,2,4]triazolo[4,3-a][1,4]diazepin-6-yl)-4,16-dioxo-6,9,12-trioxa-3,15-diazanonadecanoyl)-4-hydroxy-N-(4-(4-methylthiazol-5-yl)benzyl)pyrrolidine-2-carboxamide]
[6]
  α (FP binding): 10.9
  Kd: 9 nM
  cooperativity (α): 10.9
[7]
  pDC50 (Ab: Brd^4BD2 L387A): 6.5 ± 0.3
  pDC50 (Ab: BromoTag-Brd2): 6.7 ± 0.1
  DC50: 210 to 290 nM
[8]
  Kd: 102 nM

## CC[C@@H](C(=O)OCCOCCCOCC(=O)N[C@H](C(=O)N1C[C@H](O)C[C@H]1C(=O)N[C@@H](C)c1ccc(-c2scnc2C)cc1)C(C)(C)C)[C@@H]1N=C(c2ccc(Cl)cc2)c2c(sc(C)c2C)-n2c(C)nnc21 [AGB2 (47), 2-(3-(2-(((S)-1-((2S,4R)-4-Hydroxy-2-(((S)-1-(4-(4-methylthiazol-5-yl)phenyl)ethyl)carbamoyl)pyrrolidin-1-yl)-3,3-dimethyl-1-oxobutan-2-yl)amino)-2-oxoethoxy)propoxy)ethyl (R)-2-((S)-4-(4-chlorophenyl)-2,3,9-trimethyl-6H-thieno[3,2-f][1,2,4]triazolo[4,3-a][1,4]diazepin-6-yl)butanoate]
[6]
  α (FP binding): 3.6
  Kd: 12 nM
  cooperativity (α): 3.6
[7]
  pDC50 (Ab: Brd^4BD2 L387A): 9.0 ± 0.4
  pDC50 (Ab: BromoTag-Brd2): 8.6 ± 0.2
  DC50: 1 to 3 nM
[8]
  Kd: 45 nM
[9]
  extent of BromoTag-Brd2 degradation in the time course experiment: near-complete target degradation

## CC[C@@H](C(=O)OC)[C@@H]1N=C(c2ccc(Cl)cc2)c2c(sc(C)c2C)-n2c(C)nnc21 [ET-JQ1-OMe]
[10]
  binding to the wild-type domain: undetectable binding

## Cc1ncsc1-c1ccc(CNC(=O)[C@@H]2C[C@H](O)CN2C(=O)[C@@H](NC(=O)COCCOCCOCCNC(=O)C[C@@H]2N=C(c3ccc(Cl)cc3)c3c(sc(C)c3C)-n3c(C)nnc32)C(C)(C)C)cc1 [cis-MZ1]
[4]
  EC50: > 10000 nM

## COc1ccc2c(c1)C(c1ccc(Cl)cc1)=NC(CC(=O)NCCOCCOCCOCC(=O)N[C@H](C(=O)N1C[C@H](O)C[C@H]1C(=O)NCc1ccc(-c3scnc3C)cc1)C(C)(C)C)c1nnc(C)n1-2 (stereo partly drawn) [compound 14, (2S,4R)-1-((2S)-2-(tert-Butyl)-17-(6-(4-chlorophenyl)-8-methoxy-1-methyl-4H-benzo[f][1,2,4]triazolo[4,3-a][1,4]diazepin-4-yl)-4,16-dioxo-6,9,12-trioxa-3,15-diazaheptadecanoyl)-4-hydroxy-N-(4-(4-methylthiazol-5-yl)benzyl)pyrrolidine-2-carboxamide]
[11]
  degradation activity across all the three BET family members relative to 1: significant lower activity
